For data set [1], the system named is sol elastase of CF sputum. As to conditions: unprocessed CF sputum directly treated; cited from earlier work.
The target in data set [2] is T1, purified human neutrophil elastase (Homo sapiens, UniProt P08246).
T1 sequence (P08246 30-247 limits assumed): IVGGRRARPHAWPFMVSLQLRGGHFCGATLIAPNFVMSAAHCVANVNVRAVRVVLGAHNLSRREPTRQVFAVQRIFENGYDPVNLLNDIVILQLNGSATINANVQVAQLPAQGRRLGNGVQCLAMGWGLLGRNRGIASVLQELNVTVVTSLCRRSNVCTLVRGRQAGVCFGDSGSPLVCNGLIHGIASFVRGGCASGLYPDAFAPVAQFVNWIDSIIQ
As to conditions: cited from earlier work.

Data set [3] concerns the target c-kit (Homo sapiens, UniProt P10721). As to conditions: cited from earlier work.
Data set [4] has as its system SCLC. As to conditions: oral 600 mg daily up to 12 months; cited from earlier work.
Data set [5] has as its system bleomycin-induced pulmonary fibrosis. As to conditions: both agents from Days 14; cited from earlier work.
Data set [6] has as its system lung fibroblasts. As to conditions: 800 μg/ml of AGP, in vitro; cited from earlier work.
Data set [7] has as its system primary human fibroblasts. The experiment in a line: PDGF-induced fibroblast proliferation (MTS assay). As to conditions: for Proliferation (relative proliferation), Short Duration / Proliferation (relative proliferation), Long Duration: 20 ng/mL PDGF-BB, 72 hours, MTS; for inhibiting PDGF-induced fibroblast proliferation (in words) / cytotoxicity of drug concentrations tested: 0.5 to 50 nM; for cytotoxicity of drug concentrations tested: data not shown; for IC50: read-out: fifty-percent inhibitory concentration (IC50), PDGF-induced fibroblast proliferation, short-term exposure. On the technique in general: Tetrazolium assays rely on reduction of a dye to a coloured formazan, in cell work by metabolically active cells.

For data set [8], the system named is cancer. As to conditions: cited from earlier work.
In data set [9] the test system is relapsed/refractory multiple myeloma. As to conditions: cited from earlier work.
The conditions of data set [10]: intravenous; cited from earlier work.
The test system of data set [11] is COL1A1-PDGFβ-transformed fibroblasts, DFSP and giant-cell fibrosarcoma cell cultures. As to conditions: in vitro and in vivo; cited from earlier work.
The test system of data set [12] is newly diagnosed CML. As to conditions: cytogenetic and haematological response, time to progression; cited from earlier work.
Where [13] appears, read: 0.5 nM drug 30 min pretreatment then washed.
Where [14] appears, read: 5.0 nM drug 30 min pretreatment then washed.
Setting [15] is: 50.0 nM drug 30 min pretreatment then washed.
[16] abbreviates: bortezomib 1.3 mg/m2 vs high-dose dexamethasone.

Where a name gives a salt, the structure may show the parent alone.

Chain of c-kit (P10721 26-976): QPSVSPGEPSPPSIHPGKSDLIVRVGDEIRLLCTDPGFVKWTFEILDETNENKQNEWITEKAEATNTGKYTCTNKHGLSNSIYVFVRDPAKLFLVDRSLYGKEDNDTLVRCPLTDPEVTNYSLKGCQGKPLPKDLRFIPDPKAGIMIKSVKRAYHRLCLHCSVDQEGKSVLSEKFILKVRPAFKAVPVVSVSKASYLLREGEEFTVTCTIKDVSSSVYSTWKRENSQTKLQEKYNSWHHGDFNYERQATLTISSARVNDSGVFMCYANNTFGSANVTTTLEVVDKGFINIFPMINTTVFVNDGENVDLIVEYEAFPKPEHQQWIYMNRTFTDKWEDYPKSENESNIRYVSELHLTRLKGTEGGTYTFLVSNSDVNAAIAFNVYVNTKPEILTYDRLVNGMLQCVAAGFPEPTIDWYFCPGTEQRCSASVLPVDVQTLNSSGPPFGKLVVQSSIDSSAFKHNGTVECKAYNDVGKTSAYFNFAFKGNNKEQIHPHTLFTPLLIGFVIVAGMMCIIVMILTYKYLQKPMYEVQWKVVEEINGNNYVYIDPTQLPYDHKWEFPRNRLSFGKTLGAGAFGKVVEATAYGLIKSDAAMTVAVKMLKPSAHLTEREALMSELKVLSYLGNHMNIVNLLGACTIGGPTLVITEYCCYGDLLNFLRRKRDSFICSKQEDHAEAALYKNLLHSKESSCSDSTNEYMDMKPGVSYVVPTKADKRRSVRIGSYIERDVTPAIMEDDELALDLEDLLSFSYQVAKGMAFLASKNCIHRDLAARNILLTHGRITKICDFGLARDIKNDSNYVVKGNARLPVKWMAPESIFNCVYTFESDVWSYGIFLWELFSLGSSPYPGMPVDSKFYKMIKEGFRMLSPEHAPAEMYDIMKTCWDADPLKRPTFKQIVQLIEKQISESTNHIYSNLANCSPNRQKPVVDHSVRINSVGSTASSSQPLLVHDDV

For the molecule `O=C(O)CCCC[C@@H](S)CCS` (racemic) [DHLA, dihydrolipoic acid], in data set [1], the “increase of sol elastase activity” value is reported as “did not increase”. Besides, the “inhibition of purified human neutrophil elastase (in words)” value in data set [2] was “inhibited”.

With `Cc1ccc(NC(=O)c2ccc(CN3CCN(C)CC3)cc2)cc1Nc1nccc(-c2cccnc2)n1` [imatinib mesylate], in [3], the “signal transduction cascade triggered by c-kit activation” value was “sufficiently blocked”. Further, in data set [4], the antitumor activity entry is listed as “no observed antitumor activity”.

As to `CC[C@H]1OC(=O)[C@H](C)[C@@H](O[C@H]2C[C@@](C)(OC)[C@@H](O)[C@H](C)O2)[C@H](C)[C@@H](O[C@@H]2O[C@H](C)C[C@H](N(C)C)[C@H]2O)[C@](C)(OC)C[C@@H](C)C(=O)[C@H](C)[C@@H](O)[C@]1(C)O` [clarithromycin], the “bleomycin-induced pulmonary fibrosis, combined use with imatinib” value in data set [5] is “attenuated”. For the same molecule, in data set [6], the “concentration required to abrogate the effects of AGP” value is more than 10 µM.

Regarding `COC(=O)c1ccc2c(c1)NC(=O)/C2=C(\Nc1ccc(N(C)C(=O)CN2CCN(C)CC2)cc1)c1ccccc1` [Vargatef], the figures for the “Proliferation (relative proliferation), Short Duration” value in [7] (setting [13]), in [7] (setting [14]) and in data set [7] (setting [15]) were 0.115, 0.011 and −0.175, respectively. Besides, the “Proliferation (relative proliferation), Long Duration” value was 0.003 in data set [7] (0.5 nM drug kept in media), −0.359 in data set [7] (5.0 nM drug kept in media) and −0.642 in [7] (50.0 nM drug kept in media). The “inhibiting PDGF-induced fibroblast proliferation (in words)” value in data set [7] is “dose-responsive”. Also, in [7], the “cytotoxicity of drug concentrations tested” value is reported as “not cytotoxic”. In addition, the IC50 in data set [7] was approximately 3 nM.

For the molecule `CNC(=O)c1cc(Oc2ccc(NC(=O)Nc3ccc(Cl)c(C(F)(F)F)c3)cc2)ccn1` [Sorafinib, sorafinib], the “Proliferation (relative proliferation), Short Duration” value in data set [7] (setting [13]) was 0.117; in data set [7] (setting [14]), −0.010; in data set [7] (setting [15]), −0.147. Besides, the “Proliferation (relative proliferation), Long Duration” value in [7] (0.5 nM drug kept in media) was 0.313; in [7] (5.0 nM drug kept in media), 0.175; in data set [7] (50.0 nM drug kept in media) it was 0.130. In addition, the “inhibiting PDGF-induced fibroblast proliferation (in words)” value in [7] is recorded as “dose-responsive”. Further, in data set [7], the “cytotoxicity of drug concentrations tested” value is “not cytotoxic”. In addition, the IC50 in [7] is approximately 30 nM.

In the case of `N#CC1(c2ccc(NC(=O)c3cccnc3NCc3ccncc3)cc2)CCCC1` [Apatinib], in data set [8] (1000 mg/day), the dose limiting toxicities was 3 of 3. Also, in data set [8] (65 cancer patients, Phase I/II), the complete response is given as 1.54%, the partial response is on record as 12.31%, the progressive disease is recorded as 20% and the stable disease is reported as 66.15%. The maximum tolerated dose in data set [8] (human, in vivo) is given as 850 mg/day.

Turning to `CC(C)C[C@H](NC(=O)[C@H](Cc1ccccc1)NC(=O)c1cnccn1)B(O)O` [Bortezomib], in data set [9] (setting [16]), the 1-year survival is 80% and the “median TTP” value is given as 6.2 months. In addition, in data set [9] (human, in vivo), the “patients with peripheral neuropathy” value was 30%. For the same molecule, in [10], the clearance result is given as “rapidly cleared” and the “time to peak concentrations” value is “about 30 minutes”.

Turning to `Cc1ccc(NC(=O)c2ccc(CN3CCN(C)CC3)cc2)cc1Nc1nccc(-c2cccnc2)n1` [Glivec], the effect on cells entry in [11] was “inhibited”. The “efficacy vs interferon and low-dose cytarabine” value in [12] was “superior efficacy”.

In the case of `CC[C@H]1OC(=O)[C@H](C)[C@@H](O[C@H]2C[C@@](C)(OC)[C@@H](O)[C@H](C)O2)[C@H](C)[C@@H](O[C@@H]2O[C@H](C)C[C@H](N(C)C)[C@H]2O)[C@](C)(O)C[C@@H](C)C(=O)[C@H](C)[C@@H](O)[C@]1(C)O` [erythromycin], the “bleomycin-induced pulmonary fibrosis, combined use with imatinib” value in data set [5] was “attenuated”. In [6], the “concentration required to abrogate the effects of AGP” value is recorded as “more than 1 μM”.

For DNase, the “increase of sol elastase activity” value in [1] is recorded as 190%.

B1: reduced rhTrx: stable reduced form of recombinant human thioredoxin used as a single component (protein, UniProt P10599 2-105, looked up)
Thioredoxin: VKQIESKTAFQEALDAAGDKLVVVDFSATWCGPCKMIKPFFHSLSEKYSNVIFLEVDVDDCQDVASECEVKCMPTFQFFKKGQKVGEFSGANKEKLEATINELV
modifications: reduced form
B1: the “increase of sol elastase activity” value in data set [1] was 60%. Also, the “inhibition of purified human neutrophil elastase (in words)” value in data set [2] is “inhibited”.

(Values after patent US11980689B2 (AVALYN PHARMA INC., priority 2013, dated 2024).)
